Source: patent US20030166645A1, “Novel nitrofuran-containing heterocyclic compounds and uses thereof” (priority 2001, published 2003)
Converted amounts (≈) assume the structure as drawn. Where two headings read alike, the source gives them in different places.

Key:
Bacteroides vulgatus = test: Antimicrobial agar dilution test of anaerobic bacteria (MIC); format: cell-based; settings: 48 h
Bacteroides fragilis [1] = test: as above; format: cell-based; settings: 48 h
[2] = test system: Bacteroides thetaiotaomicron; format: cell-based; settings: agar dilution, anaerobic, 48 h
S cerevisiae = test: Microdilution antimicrobial susceptibility test (MIC); format: cell-based; settings: broth microdilution, 18-24 h, MIC = 90% inhibition of growth; for MIC: read-out: MIC S cerevisiae MIC7
P aeruginosa = test: as above; format: cell-based; settings: broth microdilution, 18-24 h, MIC = 90% inhibition of growth; for MIC: read-out: MIC P aeruginosa MIC2
E coli = test: as above; format: cell-based; settings: broth microdilution, 18-24 h, MIC = 90% inhibition of growth; for MIC: read-out: MIC E coli MIC2
E coli (ImpA) = test: as above; format: cell-based; settings: broth microdilution, 18-24 h, MIC = 90% inhibition of growth; for MIC: read-out: MIC E coli (ImpA) MIC9
Method: Microdilution Antimicrobial Susceptibility Test Assay
Stock solutions of tested compounds were prepared in N,N-dimethylformamide (DMF) at a concentration of 5 mg/mL. Working solutions of the tested compounds were then prepared from the stock solutions, in Mueller-Hinton broth (MHB) with a starting concentration of 64 μg/mL.
Bacterial inocula were prepared from overnight culture (i.e., one fresh colony from agar plate in 5 ml MHB; H. influenzae was grown in MHB with the addition of yeast extract, haematin, and NAD), centrifuged 2×5 min/3000 rpm (for S. pneumoniae and H. influenzae, 2×10 min/3000 rpm), and dispensed in 5 ml of fresh MHB each time, such that the bacterial suspension is diluted to obtain 100 colony forming units (cfu) in a microplate well (100 μl total volume).
Microplate wells were filled with two-fold dilutions of test compound (50 Al), starting with 64 μg/ml. Wells were then filled with 50 μl of bacterial inoculum (final volume: 100 μl/well). The plates were incubated at 37° C. for 18-24 hours (S. pneumoniae was grown in a CO2-enriched atmosphere).

H influenzae = test: as above; format: cell-based; settings: broth microdilution, 18-24 h, MIC = 90% inhibition of growth; for MIC: read-out: MIC H influenzae MIC4
E faecalis = test: as above; format: cell-based; settings: broth microdilution, 18-24 h, MIC = 90% inhibition of growth; for MIC: read-out: MIC E faecalis MIC2
M. catarrhalis = test: as above; format: cell-based; settings: broth microdilution, 18-24 h, MIC = 90% inhibition of growth; for MIC: Moraxella catarrhalis, read-out: MIC M. catarrhalis MIC2
S pneumoniae = test: as above; format: cell-based; settings: broth microdilution, 18-24 h, CO2-enriched atmosphere, MIC = 90% inhibition of growth; for MIC: read-out: MIC S pneumoniae MIC6
S aureus = test: as above; format: cell-based; settings: broth microdilution, 18-24 h, MIC = 90% inhibition of growth; for MIC: read-out: MIC S aureus MIC2
E. coli = test: Systemic bacterial infection model, mice infected with E. coli
S. aureus = test: Systemic bacterial infection model, mice infected with S. aureus
Peptostreptococcus sp = format: cell-based
Bacteroides fragilis [3] = format: cell-based
Clostridium perfringens = format: cell-based; settings: disk 200 μg, anaerobic, 24-48 h

Compound | MIC Bacteroides vulgatus (Bacteroides vulgatus) [µg/mL] | MIC Bacteroides fragilis (Bacteroides fragilis [1]; first B. fragilis column) [µg/mL] | MIC Bacteroides fragilis (Bacteroides fragilis [1]; second B. fragilis column) [µg/mL] | MIC Bacteroides fragilis (Bacteroides fragilis [1]; third B. fragilis column) [µg/mL] | MIC Bacteroides thetaiotaomicron [2] [µg/mL] | MIC S cerevisiae MIC7 (S cerevisiae) [µg/mL] | MIC P aeruginosa MIC2 (P aeruginosa) [µg/mL] | MIC E coli MIC2 (E coli) [µg/mL] | MIC E coli (ImpA) MIC9 (E coli (ImpA)) [µg/mL] | MIC H influenzae MIC4 (H influenzae) [µg/mL] | MIC E faecalis MIC2 (E faecalis) [µg/mL] | MIC M. catarrhalis MIC2 (M. catarrhalis) [µg/mL] | MIC S pneumoniae MIC6 (S pneumoniae) [µg/mL] | MIC S aureus MIC2 (S aureus) [µg/mL] | also measured
O=C(N[C@H](CO)[C@H](O)c1ccc([N+](=O)[O-])cc1)C(Cl)Cl [Chloramphenicol] | < 0.125 | 4 (≈ 12.4 µM) | 4 (≈ 12.4 µM) | 4 (≈ 12.4 µM) | 4 (≈ 12.4 µM) | – | – | – | – | – | – | – | – | – | –
CC[C@H]1OC(=O)[C@H](C)[C@@H](O[C@H]2C[C@@](C)(OC)[C@@H](O)[C@H](C)O2)[C@H](C)[C@@H](O[C@@H]2O[C@H](C)C[C@H](N(C)C)[C@H]2O)[C@](C)(O)C[C@@H](C)CN(C)[C@H](C)[C@@H](O)[C@]1(C)O [Azithromycin] | 1 (≈ 1.34 µM) | 4 (≈ 5.34 µM) | 4 (≈ 5.34 µM) | 4 (≈ 5.34 µM) | 4 (≈ 5.34 µM) | – | – | – | – | – | – | – | – | – | –
CNS(=O)(=O)c1nnc(-c2ccc([N+](=O)[O-])o2)n1C [Compound 106, 5-[2-(5-Nitro)furyl]-4-methyl-4H-1,2,4-triazole-3-methyl Sulfonamide] | – | – | – | – | – | – | – | – | – | – | – | – | – | – | MIC (S cerevisiae): 64 µg/mL (≈ 223 µM); MIC (P aeruginosa): > 64 µg/mL; MIC (E coli): 8 µg/mL (≈ 27.8 µM); MIC (E coli (ImpA)): 4 µg/mL (≈ 13.9 µM); MIC (H influenzae): 32 µg/mL (≈ 111 µM); MIC (E faecalis): > 64 µg/mL; MIC (M. catarrhalis): 2 µg/mL (≈ 6.96 µM); MIC (S pneumoniae): 64 µg/mL (≈ 223 µM); MIC (S aureus): > 64 µg/mL
O=[N+]([O-])c1ccc(-c2nnc(S(=O)(=O)O)n2C2CCCCC2)o1 [Compound 131] | – | – | – | – | – | >64 | >64 | >64 | >64 | 64 (≈ 187 µM) | >64 | 8 (≈ 23.4 µM) | 64 (≈ 187 µM) | >64 | –
COc1cc(Cc2cnc(N)nc2N)cc(OC)c1OC [Trimethoprim, reference compound] | – | – | – | – | – | – | – | – | – | – | – | – | – | – | MIC (S cerevisiae): > 64 µg/mL; MIC (P aeruginosa): > 64 µg/mL; MIC (E coli): 0.25 µg/mL (≈ 0.861 µM); MIC (E coli (ImpA)): < 0.12 µg/mL; MIC (H influenzae): < 0.12 µg/mL; MIC (E faecalis): < 0.12 µg/mL; MIC (M. catarrhalis): 32 µg/mL (≈ 110 µM); MIC (S pneumoniae): 8 µg/mL (≈ 27.6 µM); MIC (S aureus): 2 µg/mL (≈ 6.89 µM)
C[C@@H](O)[C@H]1C(=O)N2C(C(=O)O)=C(SCCN=CN)C[C@H]12 [Imipenem] | < 0.125 | < 0.125 | < 0.125 | < 0.125 | < 0.125 | – | – | – | – | – | – | – | – | – | –
CCC[C@@H]1C[C@@H](C(=O)N[C@@H]([C@H]2O[C@H](SC)[C@H](O)[C@@H](O)[C@H]2O)[C@H](C)Cl)N(C)C1 [Clindamycin] | < 0.125 | 1 (≈ 2.35 µM) | 1 (≈ 2.35 µM) | 1 (≈ 2.35 µM) | – | – | – | – | – | – | – | – | – | – | –
O=[N+]([O-])c1ccc(-c2nnc(S(=O)(=O)O)n2-c2ccccc2)o1 [Compound 127] | – | – | – | – | – | >64 | >64 | >64 | 64 (≈ 190 µM) | >64 | >64 | 32 (≈ 95.2 µM) | >64 | >64 | –
CCN1CCN(C(=O)N[C@@H](C(=O)N[C@@H]2C(=O)N3[C@@H]2SC(C)(C)[C@@H]3C(=O)O)c2ccccc2)C(=O)C1=O [Piperacillin] | 128 (≈ 247 µM) | 2 (≈ 3.86 µM) | 16 (≈ 30.9 µM) | 2 (≈ 3.86 µM) | 16 (≈ 30.9 µM) | – | – | – | – | – | – | – | – | – | –
O=[N+]([O-])c1ccc(-c2nnc(S(=O)(=O)O)n2-c2ccc(Cl)cc2)o1 [Compound 132] | – | – | – | – | – | 64 (≈ 173 µM) | >64 | >64 | 16 (≈ 43.2 µM) | 8 (≈ 21.6 µM) | >64 | 4 (≈ 10.8 µM) | 32 (≈ 86.3 µM) | 32 (≈ 86.3 µM) | –
Cn1c(-c2ccc([N+](=O)[O-])o2)nnc1S(=O)(=O)O [Compound 107, 5-[2-(5-Nitro)furyl]-4-methyl-4H-1,2,4-triazole-3-sulfonic Acid] | – | – | – | – | – | – | – | – | – | – | – | – | – | – | MIC (S cerevisiae): 64 µg/mL (≈ 233 µM); MIC (P aeruginosa): > 64 µg/mL; MIC (E coli): 2 µg/mL (≈ 7.29 µM); MIC (E coli (ImpA)): 4 µg/mL (≈ 14.6 µM); Survival (%) (E. coli; Study #4, 50 mg/kg IP QD × 3, 6 days observation): 70%; Survival (%) (E. coli; Study #4, 75 mg/kg IP QD × 3, 6 days observation): 90%; MIC (H influenzae): 16 µg/mL (≈ 58.3 µM); MIC (E faecalis): > 64 µg/mL; MIC (M. catarrhalis): 1 µg/mL (≈ 3.65 µM); MIC (S pneumoniae): 32 µg/mL (≈ 117 µM); MIC (S aureus): 16 µg/mL (≈ 58.3 µM)
O=C1CN(/N=C/c2ccc([N+](=O)[O-])o2)C(=O)N1 [Nitrofurantoin, reference compound] | < 0.125 | 2 (≈ 8.4 µM) | 2 (≈ 8.4 µM) | 2 (≈ 8.4 µM) | 2 (≈ 8.4 µM) | – | – | – | – | – | – | – | – | – | MIC (S cerevisiae): > 64 µg/mL; Survival (%) (S. aureus; Study #2, 25 mg/kg IP QD × 3, 6 days observation): 50%; Survival (%) (S. aureus; Study #2, 50 mg/kg IP QD × 3, 6 days observation): 50%; MIC (P aeruginosa): > 64 µg/mL; MIC (E coli): 8 µg/mL (≈ 33.6 µM); Inhibition zones (Peptostreptococcus sp): 12 mm**; Survival (%) (E. coli; Study #3, 50 mg/kg IP QD × 3, 6 days observation): 0%; Survival (%) (E. coli; Study #3, 75 mg/kg IP QD × 3, 6 days observation): 20%; Survival (%) (E. coli; Study #3, 100 mg/kg IP QD × 3, 6 days observation): 0%; MIC (H influenzae): 4 µg/mL (≈ 16.8 µM); MIC (E faecalis): 4 µg/mL (≈ 16.8 µM); Inhibition zones (Bacteroides fragilis [3]): >25 mm**; MIC (M. catarrhalis): 2 µg/mL (≈ 8.4 µM); MIC (S pneumoniae): 2 µg/mL (≈ 8.4 µM); MIC (S aureus): 16 µg/mL (≈ 67.2 µM); Inhibition zones (Clostridium perfringens; Clostridium perfringens (fresh wound isolate)): 21 mm; Inhibition zones (Clostridium perfringens; Clostridium perfringens, diameter includes disk): >25 mm**
O=[N+]([O-])c1ccc(-c2nnc(S)n2-c2cccc(Cl)c2)o1 [Compound 140] | – | – | – | – | – | >64 | >64 | >64 | 0.5 (≈ 1.55 µM) | 4 (≈ 12.4 µM) | 16 (≈ 49.6 µM) | <0.12 | 2 (≈ 6.2 µM) | 1 (≈ 3.1 µM) | –
Cn1c(-c2ccc([N+](=O)[O-])o2)nnc1S(=O)(=O)Nc1ccccc1 [Compound 123] | – | – | – | – | – | >64 | >64 | >64 | 16 (≈ 45.8 µM) | 16 (≈ 45.8 µM) | 64 (≈ 183 µM) | 1 (≈ 2.86 µM) | 8 (≈ 22.9 µM) | 64 (≈ 183 µM) | –
O=[N+]([O-])c1ccc(-c2nnc(S)n2Cc2ccco2)o1 [Compound 125] | – | – | – | – | – | >64 | >64 | >64 | 4 (≈ 13.7 µM) | 4 (≈ 13.7 µM) | 64 (≈ 219 µM) | 0.5 (≈ 1.71 µM) | 8 (≈ 27.4 µM) | 8 (≈ 27.4 µM) | –
